Measurements taken from ChEMBL document CHEMBL4619799, “Mechanistic Insight into Antiretroviral Potency of 2'-Deoxy-2'-β-fluoro-4'-azidocytidine (FNC) with a Long-Lasting Effect on HIV-1 Prevention” (J Med Chem, 2020).
The source made the active and inactive calls. The rule behind the calls is not given here. Peptide text beside a SMILES is read from it. * marks the point of attachment. Cbz = O=C(OCc1ccccc1)*

Experiments:
[1] = Cytotoxicity against HEK293 cells assessed as cell viability by MTT assay; type: cell-based; details: human
[2] = system: Human immunodeficiency virus 1; assay: Antiviral activity against VSVG pseudotyped HIV1 infected in HEK293 cells preincubated for 3 hrs followed by compound washout and subsequent compound redosing and measured after 72 hrs by luciferase reporter gene based assay; type: functional, organism-based; details: Human immunodeficiency virus 1, HEK293
[3] = target: Virion infectivity factor (Human immunodeficiency virus type 1 group M subtype B (isolate NY5)(HIV-1)) (UniProt P12504); assay: Inhibition of HIV1 HA-tagged Vif expressed in HEK293T cells co-expressing Myc-tagged pcDNA-APOBEC3G assessed as reduction in Vif-mediated A3G degradation at 10 uM measured after 16 hrs by Western blot analysis; type: cell-based; details: Human immunodeficiency virus 1, HEK-293T
Sequence of Virion infectivity factor (Human immunodeficiency virus type 1 group M subtype B (isolate NY5)(HIV-1)) (P12504 whole entry): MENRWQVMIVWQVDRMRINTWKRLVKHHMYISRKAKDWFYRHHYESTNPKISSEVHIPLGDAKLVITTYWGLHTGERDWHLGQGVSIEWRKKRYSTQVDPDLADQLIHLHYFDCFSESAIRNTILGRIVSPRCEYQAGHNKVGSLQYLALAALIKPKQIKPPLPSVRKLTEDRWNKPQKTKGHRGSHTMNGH

[4] = target: Virion infectivity factor (Human immunodeficiency virus type 1 group M subtype B (isolate NY5)(HIV-1)) (UniProt P12504); assay: Inhibition of HIV1 HA-tagged Vif expressed in HEK293T cells co-expressing Myc-tagged pcDNA-APOBEC3G and pcDNA-ubiquitin-His assessed as reduction in Vif-mediated A3G polyubiquitination at 10 uM measured after 16 hrs by Western blot analysis; type: cell-based; details: Human immunodeficiency virus 1, HEK-293T
[5] = Cytotoxicity against human Hut/CCR5 cells assessed as reduction in cell viability at 1000 to 10000 nM measured after 120 hrs by MTT assay; type: cell-based; details: 10 µM
[6] = Tmax in monkey PBMC assessed as 3TC-TP level at 20 mg/kg, po administered as single dose by LC-MS/MS analysis; type: ADME, organism-based, Macaca mulatta; details: rhesus monkey, in vivo
[7] = Cmax in monkey plasma at 20 mg/kg, po administered as single dose by LC-MS/MS analysis; type: ADME, organism-based, Macaca mulatta; set-up: dose 20 mg/kg, route oral; details: rhesus monkey
[8] = AUC (0 to 24 hrs) in monkey PBMC assessed as 3TC-TP level at 20 mg/kg, po administered as single dose by LC-MS/MS analysis; type: ADME, organism-based, Macaca mulatta; set-up: time < 24 hr, dose 20 mg/kg, route oral; details: rhesus monkey, in vivo
[9] = Tmax in monkey plasma at 20 mg/kg, po administered as single dose by LC-MS/MS analysis; type: ADME, organism-based, Macaca mulatta; details: rhesus monkey
[10] = Cmax in monkey PBMC assessed as 3TC-TP level at 20 mg/kg, po administered as single dose by LC-MS/MS analysis; type: ADME, organism-based, Macaca mulatta; set-up: dose 20 mg/kg, route oral; details: rhesus monkey, in vivo
[11] = target: Virion infectivity factor (Human immunodeficiency virus type 1 group M subtype B (isolate NY5)(HIV-1)) (UniProt P12504); assay: Inhibition of HIV1 HA-tagged Vif expressed in HEK293T cells co-expressing eGFP-tagged pcDNA-APOBEC3G assessed as reduction in Vif-mediated A3G degradation at 10000 nM measured after 48 hrs by flow cytometry; type: cell-based; details: Human immunodeficiency virus 1, HEK-293T
[12] = system: Human immunodeficiency virus 1; assay: (§1) Antiviral activity against JRFL pseudotyped HIV1 infected in human Hut/CCR5 cells assessed as time needed to reach 50% reduction of virus infection at 10000 nM incubated with cells for 4 hrs prior to compound washout followed by viral infection and measured after 72 hrs by luciferase reporter gene assay; type: functional
[13] = AUC (0 to 24 hrs) in monkey plasma at 20 mg/kg, po administered as single dose by LC-MS/MS analysis; type: ADME, organism-based, Macaca mulatta; set-up: dose 20 mg/kg, time < 24 hr, route oral; details: rhesus monkey
[14] = Binding affinity to HIV1 Vif and CBFbeta-ELOB-ELOC complex (unknown origin) by CM5 chip based assay
[15] = system: Human immunodeficiency virus 1; assay: as §1, with “1000” for “10000”; type: functional
[16] = Cmax in monkey plasma at 20 mg/kg, po administered as single dose measured after 72 hrs by LC-MS/MS analysis; type: ADME, organism-based, Macaca mulatta; set-up: dose 20 mg/kg, route oral; details: rhesus monkey
[17] = target: Virion infectivity factor (Human immunodeficiency virus type 1 group M subtype B (isolate NY5)(HIV-1)) (UniProt P12504); assay: Inhibition of HIV1 HA-tagged Vif expressed in HEK293T cells co-expressing Myc-tagged pcDNA-APOBEC3G assessed as reduction in Vif-mediated A3G degradation at 10000 nM measured after 48 hrs by Western blot analysis; type: cell-based; details: Human immunodeficiency virus 1, HEK-293T

Row | Structure (SMILES) | CC50 [1] | EC50 [2] | also measured
1 | CNc1ccn([C@@H]2O[C@@](CO)(N=[N+]=[N-])[C@@H](O)[C@@H]2F)c(=O)n1 | ≥ 25 µM | 6.7 µM | –
2 | CCNc1ccn([C@@H]2O[C@@](CO)(N=[N+]=[N-])[C@@H](O)[C@@H]2F)c(=O)n1 | – | > 10 µM | –
3 | [N-]=[N+]=N[C@]1(CO)O[C@@H](n2ccc(NC3CCCCC3)nc2=O)[C@@H](F)[C@@H]1O | – | > 10 µM | –
4 | CN(C)c1ccn([C@@H]2O[C@@](CO)(N=[N+]=[N-])[C@@H](O)[C@@H]2F)c(=O)n1 | ≥ 25 µM | 13 µM | –
5 | CCN(CC)c1ccn([C@@H]2O[C@@](CO)(N=[N+]=[N-])[C@@H](O)[C@@H]2F)c(=O)n1 | – | > 10 µM | –
6 | [N-]=[N+]=N[C@]1(CO)O[C@@H](n2ccc(N3CCCC3)nc2=O)[C@@H](F)[C@@H]1O | – | > 10 µM | –
7 | [N-]=[N+]=N[C@]1(CO)O[C@@H](n2ccc(NCCCO)nc2=O)[C@@H](F)[C@@H]1O | – | > 10 µM | –
8 | [N-]=[N+]=N[C@]1(CO)O[C@@H](n2ccc(NCc3cccnc3)nc2=O)[C@@H](F)[C@@H]1O | ≥ 25 µM | 1.3 µM | –
9 | COc1ccc(Nc2ccn([C@@H]3O[C@@](CO)(N=[N+]=[N-])[C@@H](O)[C@@H]3F)c(=O)n2)c(OC)c1 | ≥ 25 µM | 5.2 µM | –
10 | [N-]=[N+]=N[C@]1(CO)O[C@@H](n2ccc(NO)nc2=O)[C@@H](F)[C@@H]1O | ≥ 25 µM | 0.7 µM | –
11 | [N-]=[N+]=N[C@]1(CO)O[C@@H](n2ccc(N(CCO)CCO)nc2=O)[C@@H](F)[C@@H]1O | ≥ 25 µM | 0.8 µM | –
12 | CCONc1ccn([C@@H]2O[C@@](CO)(N=[N+]=[N-])[C@@H](O)[C@@H]2F)c(=O)n1 | – | > 10 µM | –
13 | [N-]=[N+]=N[C@]1(CO)O[C@@H](n2ccc(NCc3ccco3)nc2=O)[C@@H](F)[C@@H]1O | ≥ 25 µM | 0.7 µM | –
14 | [N-]=[N+]=N[C@]1(CO)O[C@@H](n2ccc(N3CCOCC3)nc2=O)[C@@H](F)[C@@H]1O | – | > 10 µM | –
15 | [N-]=[N+]=N[C@]1(CO)O[C@@H](n2ccc(NCCc3ccc(O)cc3)nc2=O)[C@@H](F)[C@@H]1O | ≥ 25 µM | 5.7 µM | –
16 | [N-]=[N+]=N[C@]1(CO)O[C@@H](n2ccc(NCCO)nc2=O)[C@@H](F)[C@@H]1O | – | > 10 µM | –
17 | CON(C)c1ccn([C@@H]2O[C@@](CO)(N=[N+]=[N-])[C@@H](O)[C@@H]2F)c(=O)n1 | – | > 10 µM | –
18 | CONc1ccn([C@@H]2O[C@@](CO)(N=[N+]=[N-])[C@@H](O)[C@@H]2F)c(=O)n1 | – | > 10 µM | –
19 | CC(C)C[C@@H](C=O)NC(=O)[C@H](CC(C)C)NC(=O)[C@H](CC(C)C)NC(=O)OCc1ccccc1 (Cbz-Leu-Leu-Leu-aldehyde) | – | – | inhibition [3]: Active; inhibition [4]: Active
20 | Nc1ccn([C@@H]2CS[C@H](CO)O2)c(=O)n1 [LAMIVUDINE] | ≥ 25 µM | 0.3 µM | Activity [5]: Non-Toxic; Tmax [6]: 1 h; Cmax [7]: 31300 nM; AUC [8]: 0.00013 µM·h; Tmax [9]: 1 h; Cmax [10]: 0.03 nM; inhibition [11]: inactive; Time [12]: 42.7 to 42.74 h; AUC(0-t) at 24 h [13]: 395 µM·h; Kd [14]: 1.51 µM; Time [15]: 26.75 h; Cmax [16]: 93.6 nM; inhibition [17]: inactive
